{"source": "paper PMC5432571", "about": "(Frontiers in Molecular Neuroscience, 2017)", "key": {"[1]": {"molecular_target": "T1, α2 GlyR (Homo sapiens, UniProt P23416)", "T1 construct": "expressed in transfected cells; host or cells: CHO cells", "T1 sequence (P23416 28-452 isoform P23416-2 limits assumed)": "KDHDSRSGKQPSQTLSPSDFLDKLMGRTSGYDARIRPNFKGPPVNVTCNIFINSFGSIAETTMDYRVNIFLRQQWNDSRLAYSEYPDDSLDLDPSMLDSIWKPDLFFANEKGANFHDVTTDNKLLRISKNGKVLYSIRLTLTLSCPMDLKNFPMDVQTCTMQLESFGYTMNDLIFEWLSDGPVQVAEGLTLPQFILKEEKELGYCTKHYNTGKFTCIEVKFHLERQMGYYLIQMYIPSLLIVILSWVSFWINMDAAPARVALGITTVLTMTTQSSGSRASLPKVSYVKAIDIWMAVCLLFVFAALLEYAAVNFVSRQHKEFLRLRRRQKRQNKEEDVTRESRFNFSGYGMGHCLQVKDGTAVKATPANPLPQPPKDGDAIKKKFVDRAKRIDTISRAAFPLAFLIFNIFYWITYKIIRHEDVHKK", "assay": "Whole-cell patch-clamp of glycine-induced currents, α2 GlyR expressed in CHO cells", "format": "cell-based", "conditions": "for glycine-evoked current, % from the control: NFA 10 μM", "experimental": "(§1) The experiments were carried out on cultured Chinese hamster ovary (CHO) cells obtained from the American Type Tissue Culture Collection (ATCC, Molsheim, France) that were maintained in culture conditions as previously described (Mukhtarov et al., [2013]; Maleeva et al., [2015]).\n(§2) One day before transfection, cells were plated on the cover slips (12 mm in diameter) and placed inside 35-mm cell culture dishes with 2 ml of medium. Transfection was performed using the Lipofectamine 3000 protocol (Life Technology, USA). To facilitate identification of transfected cells a green fluorescent protein (GFP) was added to the transfection mixture. For expression of functional heteromeric receptors, cells were simultaneously transfected with cDNAs of α and β subunits in the ratio 1:10. Three hours after the initial exposure of cells to the cDNAs the culture medium was replaced with that containing strychnine (1 μM), which prevents spontaneous activation of GlyRs. Electrophysiological recordings were performed in the fluorescent cells 24–72 h after transfection.\n(§3) Whole-cell and outside-out recordings were performed at room temperature (20–25°C) using an EPC-9 amplifier (HEKA Elektronik, Germany). Cells were continuously superfused with external solution containing (mM): NaCl 140, CaCl2 2, KCl 2.8, MgCl2 4, HEPES 20, glucose 10; pH 7.4; 320–330 mOsm. Intracellular solution used for filling recording patch pipettes contained (mM): CsCl 140, CaCl2 6, MgCl2 2, MgATP 2, NaGTP 0.4, HEPES/CsOH 10, BAPTA (tetrapotassium salt) 2; pH 7.3; 290 mOsm. Two different protocols of solutions application were used in this study. […] A “ramp protocol” implies the gradual change of Vhold alternately from −80 to +80 mV and from +80 to −80 mV during 1 s, Vhold was fixed at −80 or +80 mV at the beginning and at the end of the ramp for 500 ms (Figure 2B).\n(§4) Recording pipettes were pulled from borosilicate glass capillaries (Harvard Apparatus Ltd, USA) and had resistances of 5–10 MOhm. For the rapid replacement of the solutions, the fast application system was used. Three parallel rectangular tubes (100 × 100 μm) were positioned 40–50 μm above the recorded cell. The movement of the tubes was controlled by a computer-driven fast exchange system (SF 77A Perfusion Fast-Step, Warner, USA) allowing a 10–90% solution exchange in 3–5 ms, as measured by open electrode controls (1/10 external solution/water). Cells with low input resistance (<150 MOhm) and a rapid run-down (>30% with repetitive application) were excluded from analysis.\n(§5) Electrophysiological recordings were performed using PatchMaster (HEKA Electronic, Germany) software.\nThe fractional electrical distance from the external side of the membrane (δ) at which bound NFA blocked the current was calculated using the Woodhull equation: IC50(V)=IC50(0) exp (−δFV/RT), where IC50(V) is IC50 at the given membrane potential, IC50(0) – at 0 mV, V – membrane potential and F, R, T have their usual meanings. δ was determined from a plot of IC50 values against membrane potential."}, "[2]": {"molecular_target": "T2, α2β GlyR (Homo sapiens, UniProt P23416+P48167)", "T2 construct": "expressed in transfected cells; host or cells: CHO cells", "T2 sequence (P48167 23-497, one chain of several)": "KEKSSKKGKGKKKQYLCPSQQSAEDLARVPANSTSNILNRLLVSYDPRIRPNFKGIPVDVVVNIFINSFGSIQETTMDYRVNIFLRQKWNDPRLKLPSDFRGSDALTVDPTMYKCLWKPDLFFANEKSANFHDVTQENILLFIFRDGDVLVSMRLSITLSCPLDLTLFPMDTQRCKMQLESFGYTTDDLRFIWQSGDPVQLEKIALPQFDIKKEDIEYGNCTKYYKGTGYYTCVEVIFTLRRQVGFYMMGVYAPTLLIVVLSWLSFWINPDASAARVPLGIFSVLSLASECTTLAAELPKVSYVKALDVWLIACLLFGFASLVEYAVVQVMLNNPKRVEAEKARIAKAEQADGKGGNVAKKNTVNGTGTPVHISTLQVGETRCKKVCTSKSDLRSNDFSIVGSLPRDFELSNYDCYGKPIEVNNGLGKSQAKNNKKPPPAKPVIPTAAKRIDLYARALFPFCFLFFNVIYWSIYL", "assay": "Whole-cell patch-clamp of glycine-induced currents, heteromeric α2β GlyR expressed in CHO cells", "format": "cell-based", "conditions": "glycine 30 μM", "experimental": "as §1, §2, §3, §4, §5"}}, "note": "Read-outs that look alike come from different tables or passages of the source."}
{"smiles": "O=C(O)c1cccnc1Nc1cccc(C(F)(F)F)c1", "note": "[NFA, Niflumic acid]", "values": [{"measurement": "IC50", "setting": "[1]; +30 mV, glycine 30 μM, representative, read-out: NFA IC50 (representative IC50 curve)", "value": 17, "unit": "µM"}, {"measurement": "IC50", "setting": "[1]; +30 mV, glycine 100 μM, representative, read-out: NFA IC50 (representative IC50 curve)", "value": 12, "unit": "µM"}, {"measurement": "IC50", "setting": "[1]; +80 mV, glycine 30 μM, ramp protocol, mean ± SEM, read-out: IC50 of NFA", "value": "9 ± 2", "unit": "µM"}, {"measurement": "IC50", "setting": "[1]; +80 mV, glycine 30 μM, representative, read-out: NFA IC50 (representative IC50 curve)", "value": 12, "unit": "µM"}, {"measurement": "IC50", "setting": "[1]; +80 mV, glycine 100 μM, ramp protocol, mean ± SEM, read-out: IC50 of NFA", "value": "9 ± 2", "unit": "µM"}, {"measurement": "IC50", "setting": "[1]; +80 mV, glycine 100 μM, representative, read-out: NFA IC50 (representative IC50 curve)", "value": 7, "unit": "µM"}, {"measurement": "inhibition at 10 µM", "setting": "[1]; CHO", "value": "~50", "unit": "%"}, {"measurement": "glycine-evoked current, % from the control", "setting": "[1]; MP +80 mV", "value": "43 ± 5", "unit": "%"}, {"measurement": "glycine-evoked current, % from the control", "setting": "[1]; MP −80 mV", "value": "89 ± 4", "unit": "%"}, {"measurement": "Hill coefficient (nH) of NFA interaction", "setting": "[1]; membrane potential 30 mV, glycine 30 μM", "value": "1.1 ± 0.14"}, {"measurement": "Hill coefficient (nH) of NFA interaction", "setting": "[1]; membrane potential 50 mV, glycine 30 μM", "value": "1 ± 0.14"}, {"measurement": "Hill coefficient (nH) of NFA interaction", "setting": "[1]; membrane potential 70 mV, glycine 30 μM", "value": "1 ± 0.13"}, {"measurement": "Hill coefficient (nH) of NFA interaction", "setting": "[1]; membrane potential 80 mV, glycine 30 μM", "value": "0.97 ± 0.09"}, {"measurement": "Hill coefficient (nH) of NFA interaction", "setting": "[1]; membrane potential −50 mV, glycine 30 μM", "value": "1.14 ± 0.12"}, {"measurement": "Hill coefficient (nH) of NFA interaction", "setting": "[1]; membrane potential −70 mV, glycine 30 μM", "value": "1.04 ± 0.08"}, {"measurement": "Hill coefficient (nH) of NFA interaction", "setting": "[1]; membrane potential −80 mV, glycine 30 μM", "value": "1.05 ± 0.06"}, {"measurement": "Hill coefficient (nH) of NFA inhibitory action", "setting": "[1]; overall statement in discussion", "value": "~1"}, {"measurement": "IC50", "setting": "[1]; read-out: IC50 of NFA", "value": "133 ± 20", "unit": "µM"}, {"measurement": "IC50", "setting": "[1]; −30 mV, glycine 30 μM, representative, read-out: NFA IC50 (representative IC50 curve)", "value": 75, "unit": "µM"}, {"measurement": "IC50", "setting": "[1]; −30 mV, glycine 100 μM, representative, read-out: NFA IC50 (representative IC50 curve)", "value": 39, "unit": "µM"}, {"measurement": "IC50", "setting": "[1]; −80 mV, glycine 30 μM, ramp protocol, mean ± SEM, read-out: IC50 of NFA", "value": "166 ± 28", "unit": "µM"}, {"measurement": "IC50", "setting": "[1]; −80 mV, glycine 30 μM, representative, read-out: NFA IC50 (representative IC50 curve)", "value": 155, "unit": "µM"}, {"measurement": "IC50", "setting": "[1]; −80 mV, glycine 100 μM, representative, read-out: NFA IC50 (representative IC50 curve)", "value": 100, "unit": "µM"}, {"measurement": "IC50", "setting": "[2]; +30 mV, representative, read-out: NFA IC50 (representative IC50 curve)", "value": 24, "unit": "µM"}, {"measurement": "IC50", "setting": "[2]; +80 mV, mean ± SEM, read-out: IC50 of NFA", "value": "20 ± 8", "unit": "µM"}, {"measurement": "IC50", "setting": "[2]; +80 mV, representative, read-out: NFA IC50 (representative IC50 curve)", "value": 22, "unit": "µM"}, {"measurement": "IC50", "setting": "[2]; −30 mV, representative, read-out: NFA IC50 (representative IC50 curve)", "value": 47, "unit": "µM"}, {"measurement": "IC50", "setting": "[2]; −80 mV, mean ± SEM, read-out: IC50 of NFA", "value": "107 ± 37", "unit": "µM"}, {"measurement": "IC50", "setting": "[2]; −80 mV, representative, read-out: NFA IC50 (representative IC50 curve)", "value": 84, "unit": "µM"}]}
